Like-named read-outs stand apart in the source and are kept apart here. Marks after values point to notes of the source that are not given here. One block for each compound: values may come before it.
Legend:
[1] = Plasma FAEE levels in acute (binge) and chronic drinkers at peak ethanol levels and 24 hours after peak (Example 7); format: in vivo, human; settings: for average proportion of total FAEE which is ethyl oleate: peak or near peak ethanol levels; for concentration at 24 h: human, plasma, oral; for Proportion of Ethyl Oleate in Binge Drinkers (Mean +/− SEM) / Proportion of Ethyl Oleate in Binge Drinkers (range) / Proportion of Ethyl Oleate in Chronic Drinkers (Mean +/− SEM) / Proportion of Ethyl Oleate in Chronic Drinkers (range): of total FAEE in plasma; for mean difference between proportion of total FAEE which is ethyl stearate and proportion which is ethyl oleate: 24 hours after alcohol consumption
Experimental: Thus, as an example, gas chromatography either alone or in combination with mass spectrometry and/or an initial step of solid phase extraction can be used to determine total and/or individual fatty acid ethyl ester concentrations. […] If the sample has been previously harvested and frozen, it is thawed out and a 1 mL aliquot is removed for analysis. […] In order to determine and quantitate FAEE content, an internal standard of 1 nmol of ethyl heptadecanoate (ethyl 17:0) is added to each sample. Samples are extracted with acetone hexane (2:8, by volume) and dried under nitrogen vapors to a volume of approximately 300 μL. FAEEs are isolated by solid phase extraction using Bond Elut-LRC aminopropyl columns. Columns are pre-washed with dichloromethane followed by hexane; the sample is then applied to the column and eluted by successive washes of hexane and dichloromethane. Combined eluates are concentrated, and FAEEs are then quantified by GC-MS using a Hewlett Packard 5890 Series II gas chromatograph equipped with a Supelcowax SP-2330 capillary column coupled to an HP-5971 mass spectrometer. The injector and detector are maintained at 260° C. and 280° C., respectively. The oven program is initially maintained at 130° C. for 2 minutes then ramped to 160° C. at 5° C./min, ramped again at 2° C./min to 180° C., held for 7 min, finally, ramped to 230° C. at 15° C/min and maintained for 2 min. Carrier gas flow rate is maintained at a constant 0.8 mL/min throughout. Single-ion monitoring is performed, quantifying appropriate base ions for individual FAEE species [i.e., ions m/z 67, 88, and 101 for ethyl palmitate (E16:0), ethyl heptadecanoate (E17:0), ethyl stearate (E18:0), ethyl oleate (E18:1), and ethyl linoleate (E18.2); and ions m/z 79 and 91 for ethyl arachidonate (E20:4), ethyl eicosapentaenoate (E20:5), and ethyl docosahexaenoate (E22:6)]. FAEEs are quantitated by interpolation of the slope generated from individually prepared calibration curves comparing areas of varying concentrations of E16:0-E22:6 to fixed concentrations of the internal standard (E17:0). Mass relationships are obtained for each FAEE using its individual calibration curve. Total FAEE mass is determined by the addition of masses of individual FAEEs (E16:0-E22:6).
A subset of human subjects presenting at the Massachusetts General Hospital with apparent alcohol related symptoms were entered into this study. Blood was collected from such subjects immediately at the time of presentation, which was assumed to be at peak or near peak ethanol levels, and again 24 hours after presentation. A medical history taken from each subject was used to categorize the subject as a chronic alcoholic or an acute (i.e., binge) drinker. Blood samples were processed, as described herein, to determine the absolute levels of ethyl palmitate, ethyl oleate and total FAEE in plasma.

[2] = Distribution of plasma FAEE species in chronic alcoholics vs. acutely intoxicated individuals (Example 6); format: in vivo, human; settings: for proportion of total FAEE, acute drinkers relative to chronic drinkers: plasma
Text: Plasma was obtained from chronic alcoholics (i.e. chronic drinkers) at the time of admission to a detoxification program. Acutely intoxicated control subjects used for comparison in this study were normal, healthy volunteers who also participated in the study concerning gender and alcoholic beverage type (see above).

[3] = Post-mortem liver and adipose FAEE as markers of pre-mortem ethanol intake (Example 9); format: in vivo; settings: autopsy tissue
Text: This study was approved by both the Massachusetts Medical Examiner Office Committee and the Massachusetts General Hospital Pathology Quality Assurance Committee. Twenty-four sets of samples were collected at the Massachusetts State Medical Examiner's Office and 7 sets of samples were obtained from the Pathology Department of Massachusetts General Hospital. Medical history, history of ethanol ingestion (obtained from the organ bank, treating physician, health insurance records, and/or relatives), and the blood ethanol level at autopsy were obtained in each case. Only cases with available blood ethanol levels were included in this study. Individuals who had detectable blood ethanol levels at the time of autopsy, with or without a history of ethanol abuse, were grouped as “positive for ethanol.” Individuals categorized in the chronic alcoholic or social drinker groups met all of the following criteria a) no known alcohol intake immediately prior to death; b) undetectable blood ethanol level in blood samples collected at autopsy; and c) no suspicious incident at the time of death. In addition, chronic alcoholics were diagnosed according to the Diagnostic and Statistical Manual-IV.
Samples of liver and adipose tissue were collected at autopsy from randomly selected cases and FAEE were isolated and quantitated from these organs as mass per gram wet weight. […]

[4] = Serum FAEE and blood ethanol over time in men and women after alcohol consumption over 90 minutes (Example 1); format: in vivo, human
Experimental: Seven volunteers (four men and […]) were given measured amounts of 100-proof vodka mixed with fruit juice in a 1:3 ratio which was weight-adjusted to increase blood ethanol levels to approximately 120-147 mg/dL. The beverage was divided in 9 equal aliquots which the subjects drank over a 90 minute period, 1 aliquot every 10 minutes. This alcohol intake represented consumption to the legal limit of intoxication. Once the drinking commenced, blood was collected from a catheter every 15 min for the first 2.5 h. Between 2.5 and 4.0 h, samples were collected every 30 min; and from 4 to 8 h, they were collected every 60 min. A final blood sample was also collected 24 h after the ethanol ingestion commenced. Blood was collected from a peripheral venous catheter into vacuum tubes without anti-coagulant (for serum FAEE) and into tubes with the anti-coagulant sodium citrate (for plasma ethanol). (Soderberg, et al., Clinical Chemistry, 45(12):2183-2190, 1999; Doyle, K. M. et al., JAMA, 276:1152-1156, 1996)
All samples were extracted with acetone/hexane (2/8, v/v) and dried under nitrogen vapors to a volume of approximately 300 μL. […] FAEEs were then quantitated by gas chromatography-mass spectrometry (GC-MS) using a Hewlett-Packard 5890 Series II gas chromatograph equipped with a Supelcowax SP-2330 capillary column coupled to an HP-5971 mass spectrometer.

[5] = a day after peak or near peak alcohol levels
[6] = binge drinkers, 24 hours after peak ethanol levels

Structure (SMILES): CCCCCCCC/C=C\CCCCCCCC(=O)OCC [ethyl oleate]
- Concentration of Ethyl Oleate in Binge Drinkers (Mean +/− SEM) ([1]; 24 hours after peak): (14 ± 8) pmol/mL
- Concentration of Ethyl Oleate in Chronic Drinkers (Mean +/− SEM) ([1]; 24 hours after peak): (2714 ± 1821) pmol/mL
- proportion of total FAEE which is ethyl oleate [1, 6]: 10%
- average proportion of total FAEE which is ethyl oleate ([1]; binge drinkers): 32%
- proportion of total FAEE which is ethyl oleate ([1]; chronic drinkers, 24 hours after peak ethanol levels): 71%
- average proportion of total FAEE which is ethyl oleate ([1]; chronic drinkers): 28%
- concentration at 24 h ([1]; 24 hours after peak ethanol levels, read-out: concentration of ethyl oleate in the majority of binge drinkers (9 out of 13)): < 1 nM
- concentration at 24 h ([1]; 24 hours after peak, read-out: Concentration of Ethyl Oleate in Binge Drinkers (range)): 0 to 80 nM
- concentration at 24 h ([1]; 24 hours after peak, read-out: Concentration of Ethyl Oleate in Chronic Drinkers (range)): 120 to 28100 nM
- Proportion of Ethyl Oleate in Binge Drinkers (Mean +/− SEM) ([1]; 24 hours after peak): (0.09 +/− 0.04)
- Proportion of Ethyl Oleate in Binge Drinkers (range) ([1]; 24 hours after peak): 0.01-0.46
- Proportion of Ethyl Oleate in Chronic Drinkers (Mean +/− SEM) ([1]; 24 hours after peak): (0.71 +/− 0.02)
- Proportion of Ethyl Oleate in Chronic Drinkers (range) ([1]; 24 hours after peak): 0.58-0.82
- Proportion of Ethyl Oleate in Binge Drinkers (Mean +/− SEM) ([1]; peak or near peak ethanol): (0.28 +/− 0.02)
- Proportion of Ethyl Oleate in Binge Drinkers (range) ([1]; peak or near peak ethanol): 0.01-0.44
- Proportion of Ethyl Oleate in Chronic Drinkers (Mean +/− SEM) ([1]; peak or near peak ethanol): (0.32 +/− 0.02)
- Proportion of Ethyl Oleate in Chronic Drinkers (range) ([1]; peak or near peak ethanol): 0.16-0.46
- Concentration of Ethyl Oleate in Binge Drinkers (Mean +/− SEM) ([1]; peak or near peak ethanol): (557 ± 82) pmol/mL
- Concentration of Ethyl Oleate in Binge Drinkers (range) ([1]; peak or near peak ethanol): 184 to 1049 nM
- Concentration of Ethyl Oleate in Chronic Drinkers (Mean +/− SEM) ([1]; peak or near peak ethanol): (2817 +/− 780) pmol/mL
- Concentration of Ethyl Oleate in Chronic Drinkers (range) ([1]; peak or near peak ethanol): 96 to 16011 nM
- percent of total FAEE in plasma ([2]; acute drinkers): about 30%
- percent of total FAEE in plasma ([2]; chronic drinkers, at admission to detoxification program): ~75%

Structure (SMILES): CCCCC/C=C\C/C=C\C/C=C\C/C=C\CCCC(=O)OCC [ethyl arachidonate]
- level in liver and adipose, individuals with detectable blood ethanol at autopsy compared with chronic alcoholics and social drinkers [3]: markedly higher

Structure (SMILES): CCCCCCCCCCCCCCCCCC(=O)OCC [ethyl stearate]
- mean difference between proportion of total FAEE which is ethyl stearate and proportion which is ethyl oleate ([1]; binge drinkers): about 10%
- mean difference between proportion of total FAEE which is ethyl stearate and proportion which is ethyl oleate ([1]; chronic alcoholics): roughly 70%
- proportion of total FAEE, acute drinkers relative to chronic drinkers [2]: ~15 fold

More lines, main results first:

- Ethyl Palmitate to Ethyl Oleate Ratio in Chronic Drinkers (Mean +/− SEM) ([1]; 24 hours after peak): (0.41 +/− 0.03)
- Ethyl Palmitate to Ethyl Oleate Ratio in Chronic Drinkers (range) ([1]; 24 hours after peak): 0.22-0.73
- Ethyl Palmitate to Ethyl Oleate Ratio in Binge Drinkers (Mean +/− SEM) ([1]; 24 hours after peak, mean calculated using a value of 100 where the ratio was ∞): (69.8 +/− 13.1)*
- P/O ratio of all chronic drinkers [1, 5]: less than 1.0
- P/O ratio of most binge drinkers [1, 5]: ∞
- mean proportion of total FAEE which is ethyl palmitate [1, 6]: 80%
- mean proportion of total FAEE which is ethyl palmitate ([1]; binge drinkers, peak or near peak alcohol levels): 49%
- mean proportion of total FAEE which is ethyl palmitate ([1]; chronic alcoholics, 24 hours after peak ethanol levels): 29%
- mean proportion of total FAEE which is ethyl palmitate ([1]; chronic alcoholics, peak or near peak alcohol levels): 38%
- Ethyl Palmitate to Ethyl Oleate Ratio in Binge Drinkers (Mean +/− SEM) ([1]; peak or near peak): (6.28 +/− 5.0)
- Ethyl Palmitate to Ethyl Oleate Ratio in Binge Drinkers (range) ([1]; peak or near peak): 0.96-70.65
- Ethyl Palmitate to Ethyl Oleate Ratio in Chronic Drinkers (Mean +/− SEM) ([1]; peak or near peak): (1.27 +/− 0.12)
- Ethyl Palmitate to Ethyl Oleate Ratio in Chronic Drinkers (range) ([1]; peak or near peak): 0.53-3.49
Structure (SMILES): CCCCCCCCCCCCCCCC(=O)OCC [ethyl palmitate]
- proportion of total FAEE, acute drinkers relative to chronic drinkers [2]: almost three times higher

- time at which blood ethanol decreased to initial levels ([4]; after the beginning of alcohol intake): about 500 minutes
- maximum level of blood ethanol ([4]; both men and women): approximately 130 mg/dL
Structure (SMILES): CCO [ethanol]
